{"source": "paper PMC6396489", "about": "(Cell Communication and Signaling : CCS, 2019)", "key": {"Src": {"system": "Src", "assay": "Western blotting of Src and PLCγ phosphorylation in NIH3T3 cells", "assay_type": "cell-based", "experimental": "NIH3T3 and Raw 264.7 cells were cultured in DMEM supplemented with 2 mM L-glutamine, 50 U/mL penicillin, […] streptomycin, and 10% CS or heat-inactivated FBS (30 min at 55 °C), respectively. NIH3T3 cells were transfected with different plasmids using the Lipofectamine LTX/plus reagent according to the manufacturer’s instructions. For immunofluorescence experiments, NIH3T3 cells were seeded onto glass coverslips in 24-well plates at a concentration suitable for 70% confluence without transfection or 50% confluence in the case of Lipofectamine-based cell transfection. In the latter, approximately 24 h after seeding, NIH3T3 cells were transiently transfected with different plasmids with the Lipofectamine LTX/plus reagent following the manufacturer’s instructions. Before treatments, NIH3T3 cells were serum-starved in DMEM with 2 mM glutamine, 50 U/mL penicillin and streptomycin for 16–20 h. The cells were then treated with different stimuli and/or inhibitors, as indicated in the text and/or Figure legends. Addition of exogenous GroPIns4P was at 50 μM (unless otherwise indicated), a concentration eliciting an intracellular concentration of about 1.5 μM, as calculated from the Nernst equation (with T = 300 K, z = − 3, and Veq = − 30 mV, an average value for cultured, non-excitable cells).\n(§1) NIH3T3 cells were washed with ice-cold PBS and lysed on ice in buffer containing 20 mM Tris-HCl, pH 8.0, 150 mM NaCl, 1% Triton-X100, 5 mM Na3VO4, 30 mM β-glycerophosphate and 10 mM NaF supplemented with the protease inhibitor cocktail and processed for SDS-PAGE. Westen blotting was performed with the relevant antibodies. For immunoprecipitation experiments, 2 μg of an anti-Shp1 antibody or 5 μg of an anti-Src antibody were added to 1 mg of NIH3T3 cell lysates at 4 °C and incubated overnight. The samples were then incubated with A or G protein agarose beads for 1 h at 4 °C. Western blotting was performed from the washed and denatured complexes."}, "Shp1": {"biological_target": "T1, Shp1 (Homo sapiens, UniProt P29350)", "T1 construct": "the C-terminal truncated form of human Shp1 cDNA (His-Shp1; amino acids 1–529); made in house; host or cells: E. coli BL21(DE3)", "T1 sequence (P29350 1-529 isoform P29350-3)": "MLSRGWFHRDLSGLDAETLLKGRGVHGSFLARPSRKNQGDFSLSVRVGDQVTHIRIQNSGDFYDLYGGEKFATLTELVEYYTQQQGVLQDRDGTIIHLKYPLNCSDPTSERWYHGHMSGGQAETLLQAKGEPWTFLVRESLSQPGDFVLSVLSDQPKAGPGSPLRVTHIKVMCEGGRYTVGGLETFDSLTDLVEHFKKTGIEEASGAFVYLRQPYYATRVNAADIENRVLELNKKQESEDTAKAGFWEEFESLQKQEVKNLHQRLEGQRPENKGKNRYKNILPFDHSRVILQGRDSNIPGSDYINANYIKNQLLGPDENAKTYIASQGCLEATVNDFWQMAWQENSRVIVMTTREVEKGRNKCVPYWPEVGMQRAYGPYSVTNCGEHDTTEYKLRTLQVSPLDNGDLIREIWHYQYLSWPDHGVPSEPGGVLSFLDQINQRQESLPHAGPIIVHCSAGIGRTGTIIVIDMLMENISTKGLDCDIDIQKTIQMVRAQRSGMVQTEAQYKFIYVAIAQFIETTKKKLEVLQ", "assay": "In-vitro dephosphorylation of Src by recombinant Shp1", "assay_type": "biochemical", "settings": "50 μM, 10 min at 37 °C", "experimental": "The immunoprecipitates were washed three times with lysis buffer, three times with lysis buffer without phosphatase inhibitors, and twice with phosphatase buffer (100 mM Na-Hepes, pH 7.4, 150 mM NaCl, 1 mM EDTA, and 10 mM DTT). The immunoprecipitates were then split equally into different tubes for treatment with Shp1 or buffer only. The treatment consisted of the addition of 2 μg of Shp1 to the immunoprecipitates in the absence or presence of 50 μM GroPIns4P and an incubation at 37 °C for different times. The reactions were terminated by the addition of concentrated SDS-sample buffer."}, "Shp1 and Src": {"system": "T2, Shp1 and Src", "T2 construct": "expressed in transfected cells; host or cells: NIH3T3", "assay": "Co-immunoprecipitation of Src with Shp1 in NIH3T3 cells", "assay_type": "cell-based", "settings": "50 μM for 5 min", "experimental": "as §1"}, "NIH3T3 cells": {"system": "NIH3T3 cells", "assay": "Wound-healing assay", "assay_type": "cell-based", "experimental": "To perform the wound-healing assay, NIH3T3 cells were seeded in 6-well tissue culture plates to a final density of 3 × 10^5 cells/well and maintained at 37 °C and 5% CO2 for 24 h until confluence before being starved overnight in DMEM containing 1% bovine serum. The cell monolayer was wounded by scratching with a 10 μL standard sterile pipette tip. The scratched monolayer was rinsed twice with DMEM containing 1% bovine serum to remove cell debris and incubated with or without 50 μM GroPIns4P. […] In detail, the input image was processed by applying a Sobel edge detector [26], obtaining a gradient image. A threshold process was then performed on the gradient image to obtain the foreground corresponding to the wound area. Particularly, all of the pixels of the gradient image with values less than the threshold θ were assumed to be pixels of the foreground (experimentally, θ is set to 4). Finally, procedures based on morphological operations were used to remove small regions and to fill holes of the wound area to complete detection and analysis."}, "[1]": {"settings": "NIH3T3 overexpressing Shp1-C455S, 50 μM"}}, "data": [{"smiles": "O=P(O)(O)OC1C(O)C(O)C(OP(=O)(O)OCC(O)CO)C(O)C1O", "note": "(stereo not drawn) [GroPIns4P, glycerophosphoinositol 4-phosphate]", "values": [{"measurement": "phosphorylation of PLCγ on Tyr783", "setting": "Src; NIH3T3, 50 μM", "result": "induced an increase in phosphorylation"}, {"measurement": "Src activating Tyr418 phosphorylation", "setting": "Src; NIH3T3, 50 μM for 2 to 5 min", "result": "increased"}, {"measurement": "Src inhibitory Tyr530 phosphorylation", "setting": "Src; NIH3T3, 50 μM for 2 to 5 min", "result": "markedly decreased"}, {"measurement": "Src Tyr418 or PLCγ tyrosine phosphorylation", "setting": "Src; [1]", "result": "no increase"}, {"measurement": "Src dephosphorylation (pTyr530)", "setting": "Src; [1]", "result": "failed to induce Src dephosphorylation"}, {"measurement": "effect on Shp1 phosphatase activity against immunopurified Src (pTyr530)", "setting": "Shp1", "result": "stimulated Shp1 activity and induced Src dephosphorylation"}, {"measurement": "increase in the interaction between Shp1-C455S and Src", "setting": "Shp1 and Src; NIH3T3 over-expressing Shp1-C455S", "result": 2.2, "unit": "fold"}, {"measurement": "change in Shp1-Src complex formation", "setting": "Shp1 and Src; NIH3T3 over-expressing Shp1 S118A/R138E/S140A", "result": "no change"}, {"measurement": "increase of Shp1-Src interaction compared with the control", "setting": "Shp1 and Src; NIH3T3 over-expressing Shp1 WT", "result": "about 1.6 fold"}, {"measurement": "increase of wound closure compared to the control", "setting": "NIH3T3 cells; 50 μM, 6 h after scratching", "result": 65, "unit": "%"}, {"measurement": "wound closure", "setting": "NIH3T3 cells; 50 μM, at 30 h", "result": "almost complete"}, {"measurement": "rescue of EGF effect in cells treated with cPLA2α inhibitor", "setting": "NIH3T3 cells; EGF 10 ng/ml, cPLA2α inhibitor, 50 μM GroPIns4P", "result": "could be rescued"}]}]}
